Measured values as given in patent publication US20220119399A1, “COMPOUNDS AND COMPOSITIONS THAT CAUSE MYCN AND/OR CMYC DEGRADATION AND METHODS OF USE THEREOF” (THE TRUSTEES OF COLUMBIA UNIVERSITY IN THE CITY OF NEW YORK, priority 2018, published 2022).
“Also recorded” adds a separate entry of the source.

What was measured:
SK-N-Be2 cells = assay: Cell viability assay (CellTiterGlo) in SK-N-Be2 cells; type: cell-based, human; conditions: SK-N-Be2 cells
MYCN transcript = assay: RNASeq analysis of SK-N-Be2 cells, MYCN transcript; type: cell-based, human; conditions: 3 μM or 10 μM, 3 h and 6 h
Method: (§1) To uncover changes in gene expression that underpin responses to pomiferin and isopomiferin, RNASeq analysis of SK-N-Be2 cells was performed following treatment with the two active prenylated isoflavonoids as well as a null analog that served as a negative control. SK-N-Be2 cells were treated with either 3 μM or 10 μM of isopomiferin or pomiferin and sampled after 3 h and 6 h. […] By comparing the active to the null analogs, downstream analyses can focus on changes in gene expression associated with the MYCN signature.

TEAD4 transcript = assay: RNASeq analysis of SK-N-Be2 cells, TEAD4 transcript; type: cell-based, human; conditions: 3 μM or 10 μM, 3 h and 6 h
Method: as §1

MYCNA tumor xenografts = assay: Tumor growth of MYCNA tumor xenografts; type: in vivo, mouse; conditions: daily i.p. 20 mg/kg, 21 days, versus vehicle-only control
Method: 6-week old male mice were purchased from Charles River Laboratories, and housed in Columbia University's animal control barrier facilities, and mice were allowed one week to acclimate to their new environment. To establish tumor xenografts, 10×10^6 SK-N-Be2 cells were suspended in a 200 μL volume of 50% matrigel slurry. […] Mice were kept on standard chow diet (Purina), and their cage dressing changed twice weekly. Animals were investigated regularly for any sign of discomfort. […] To create the stock solution of isopomiferin, 5 mg of isopomiferin (MicroSource) was dissolved into 50 μL dimethyl sulfoxide (DMSO). To this 450 μL of cyclodextrin solution was added dropwise. Cyclodextrin is dissolved as a 50% w/v solution in 40% EtOH. It is important to add the cyclodextrin slowly and with continual mixing to solubilize the compound. This solution was added to one volume of PBS and filter-sterilized. This solution was then diluted to achieve appropriate concentrations for a 200 μL volume administration at 10 mg/kg to each mouse. The solution was administered to animals via intraperitoneal injection (i.p.). […]
The ability of the compounds to inhibit growth of MYCNA tumor xenografts was evaluated by treating tumor bearing mice with daily i.p. injections of 20 mg/kg isopomiferin or pomiferin. […] MYCN abundance was evaluated mid-experiment, following 14 days of treatment.

[1] = tested on: NCI-H69, NCI-H526, NCI-H4414 and A549 cells; assay: Cell viability of four lung cancer cell lines; type: cell-based; conditions: dose series
Method: Neuroblastoma (SK-N-Be2; IMR-32; NLF; SK-N-AS) and lung cancer cell lines (NCI-H69; NCI-H526; NCI-H441-4) were grown in Advanced RPMI medium (Life Technologies) supplemented with 10% FBS (Gibco), 1% GlutaMAX (Gibco), and 1% Penicillin/Streptomycin. A549 cells (NSCLC) was grown in F-12K medium (Gibco) with 10% FBS (Gibco), and 1% Penicillin/Streptomycin. Cell cultures were incubated at 37° C. with 5% CO2. For chemical screening, cells were trypsinized, counted and seeded into white opaque 384-well plates (Perkin Elmer) at a density of 1000 cells/well and incubated overnight. […] Cells were treated for 72 hrs, after which cell viability was determined using CellTiterGlo® luminescence assay, following the manufacturer's instructions (Promega). […] Cell viability data were analyzed and charted using PRISM v7.0 software (GraphPad). The dose-response curves were used to generate an inhibitory constant (IC50) value, which was averaged across the two cell lines from each subtype (ie: SK-N-AS and NLF as MESN NBL subtype; IMR-32 and SK-N-Be2 as MycN^AMP subtype). The IC50 values for each subtype were used to evaluate subtype selectivity of each compound, and identify compounds with enhanced potency in MycN^AMP NBL.

CK2a1 = molecular target: T1, CK2a1 (Homo sapiens, UniProt P68400); assay: Cell-free biochemical CK2a1 kinase assay; conditions: for IC50: read-out: IC50 of CK2a kinase activity
T1 construct: purchased Reaction Biology Corporation (Malvern, Pa.)
T1 sequence (P68400 whole entry): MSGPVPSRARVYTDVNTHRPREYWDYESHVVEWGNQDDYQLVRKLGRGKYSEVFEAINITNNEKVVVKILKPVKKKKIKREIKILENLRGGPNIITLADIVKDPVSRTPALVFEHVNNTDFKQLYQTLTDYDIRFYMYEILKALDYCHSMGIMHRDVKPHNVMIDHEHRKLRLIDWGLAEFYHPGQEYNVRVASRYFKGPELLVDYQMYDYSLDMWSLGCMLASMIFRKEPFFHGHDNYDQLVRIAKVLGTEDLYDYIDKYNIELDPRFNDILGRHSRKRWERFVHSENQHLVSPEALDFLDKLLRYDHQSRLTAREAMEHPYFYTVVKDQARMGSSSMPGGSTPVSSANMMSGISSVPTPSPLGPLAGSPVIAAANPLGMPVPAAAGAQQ
Method: Cell-free biochemical kinase assays were performed at Reaction Biology Corporation (Malvern, Pa.). In brief, kinase substrates were diluted into reaction buffer containing 20 mM Hepes (pH 7.5), 10 mM MgCl2, 1 mM EGTA, 0.02% Brij35, 0.02 mg/ml BSA, 0.1 mM Na3VO4, 2 mM DTT, 1% DMSO. Purified protein (CK2a1, CK2a2, or mTOR) was added to the substrate solution and gently mixed. Test compounds were diluted from 10 mM DMSO stock solutions into the reaction buffer using an Echo550 acoustic dispenser, followed by incubation at RT for 20 min. 33P-ATP (10 μCi/μL) was added to reaction mixture, following incubation for 2 h at RT. Reactions were then spotted onto P81 ion exchange paper and kinase activity was detected by filter binding method.

[2] = Metabolic stability in mouse liver microsomes; type: in vitro ADME
Method: Mouse liver microsomes (Xenotech) were diluted to 0.5 mg/mL in a solution containing 100 mM PBS buffer at 7.4 pH, an NADPH regenerating system (Promega), and test compounds at 20 μM. The mixture was incubated at 37° C. under gentle rotation for the indicated time points. The reaction was quenched by aliquoting 15 μL of solution into 60 μL ice-cold acetonitrile containing an internal standard. Test compounds were quantified by LC-MS using a system comprised of a Thermo Scientific Dionex Ultimate 3000 and a Bruker amaZon SL equipped with an electrospray ionization source controlled by a Bruker Hystar 3.2. Compounds were separated by injecting 20 μL of sample onto an Agilent Eclipse Plus C18 column (2.1×50 mm, […]) maintained at 20° C., with the flow rate set at 400 μL/min. Initial flow conditions were 60% solvent A (MilliQ H2O, 0.1% acetic acid), and 40% solvent B (HPLC-grade MeOH, 0.1% acetic acid). Solvent B was raised to 60% over 0.25 min and to 70% by 6.75 min. Solvent B was raised to 95% by 7 min and lowered back to 40% by 8 minutes; total run time was 9 min.

Compound	inhibition of SK-N-Be2 cell viability (rank or activity in words) (SK-N-Be2 cells; 72 hrs)	MYCN transcript abundance (RNASeq) (MYCN transcript)	TEAD4 transcript (RNASeq) (TEAD4 transcript)	tumor growth (MYCNA tumor xenografts)	sensitivity of MycN-expressing versus non-expressing lung cancer lines (cell viability) [1]	CK2a1 kinase activity (CK2a1)	IC50 (CK2a1)	compound remaining in mouse liver microsomes ([2]; 2 h incubation, 0.5 mg/mL microsomes)	IC20 (SK-N-Be2 cells; determined empirically)	compound remaining in mouse liver microsomes ([2]; mouse, microsomes, 2 h)
CC(C)=CCc1c2c(c3occ(-c4ccc(O)c(O)c4)c(=O)c3c1O)C=CC(C)(C)O2 [pomiferin]	the most potent compound of the group; also recorded: the most potent inhibitor of viability	suppressed MYCN transcript abundance	suppressed both MYCN and TEAD4 transcript	reduced rates of tumor proliferation that were significant from the vehicle-only control arm by day 19	MycN-driven cell lines were more sensitive to the compound	inhibiting both isoforms equally in a concentration-dependent manner	~7 µM	~80%		
CC1(C)C=Cc2c(c3c(c4c(=O)c(-c5ccc(O)c(O)c5)coc24)OC(C)(C)CC3)O1 [isopomiferin]		suppressed MYCN transcript abundance	did not affect TEAD4	these differences were not significant	the MycN-expressing lines were more sensitive to isopomiferin treatment		~7 µM		10 µM	~50%
